# Source: patent US20260138961A1, “MODULATORS OF MITOCHONDRIAL DNA REPLICATION” (Pretzel Therapeutics, Inc., priority 2022, published 2026)
# Target: T1, wild type human POLγ (POLγA:WT) (Homo sapiens, UniProt P54098)
# T1 sequence (P54098 1-1239): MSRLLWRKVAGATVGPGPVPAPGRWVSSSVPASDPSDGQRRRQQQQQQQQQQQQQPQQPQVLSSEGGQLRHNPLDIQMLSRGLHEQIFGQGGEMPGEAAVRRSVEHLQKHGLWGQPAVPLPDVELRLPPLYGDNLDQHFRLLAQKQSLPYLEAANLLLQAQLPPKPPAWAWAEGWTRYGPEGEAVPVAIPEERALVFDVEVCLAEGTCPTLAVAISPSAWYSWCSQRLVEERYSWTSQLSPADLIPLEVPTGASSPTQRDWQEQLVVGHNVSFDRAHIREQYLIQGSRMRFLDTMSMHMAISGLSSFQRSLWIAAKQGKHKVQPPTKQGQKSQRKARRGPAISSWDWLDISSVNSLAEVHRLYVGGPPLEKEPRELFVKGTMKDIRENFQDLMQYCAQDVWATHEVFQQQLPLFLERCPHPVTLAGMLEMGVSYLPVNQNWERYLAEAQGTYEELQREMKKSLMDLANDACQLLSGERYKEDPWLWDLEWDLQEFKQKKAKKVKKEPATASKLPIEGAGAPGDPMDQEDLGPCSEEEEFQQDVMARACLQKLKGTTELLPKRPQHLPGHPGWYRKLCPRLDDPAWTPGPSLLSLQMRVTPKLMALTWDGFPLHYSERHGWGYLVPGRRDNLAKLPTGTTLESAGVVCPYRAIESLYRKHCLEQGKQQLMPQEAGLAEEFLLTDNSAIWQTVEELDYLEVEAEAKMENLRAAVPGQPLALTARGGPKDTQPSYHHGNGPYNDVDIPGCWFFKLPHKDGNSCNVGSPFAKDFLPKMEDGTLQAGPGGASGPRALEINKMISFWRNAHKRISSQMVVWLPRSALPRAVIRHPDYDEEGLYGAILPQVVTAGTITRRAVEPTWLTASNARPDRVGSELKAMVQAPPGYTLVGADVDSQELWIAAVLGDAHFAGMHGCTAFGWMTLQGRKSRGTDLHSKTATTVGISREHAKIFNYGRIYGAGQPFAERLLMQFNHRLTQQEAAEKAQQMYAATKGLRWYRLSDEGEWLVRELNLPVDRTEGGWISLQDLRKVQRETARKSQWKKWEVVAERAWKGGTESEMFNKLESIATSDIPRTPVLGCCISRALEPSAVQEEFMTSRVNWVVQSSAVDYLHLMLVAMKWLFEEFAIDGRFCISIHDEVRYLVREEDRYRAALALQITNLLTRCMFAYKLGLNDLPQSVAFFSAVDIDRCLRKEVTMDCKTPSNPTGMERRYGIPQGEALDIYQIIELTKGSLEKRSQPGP
# T1 sequence (Q9UHN1 1-485 partner): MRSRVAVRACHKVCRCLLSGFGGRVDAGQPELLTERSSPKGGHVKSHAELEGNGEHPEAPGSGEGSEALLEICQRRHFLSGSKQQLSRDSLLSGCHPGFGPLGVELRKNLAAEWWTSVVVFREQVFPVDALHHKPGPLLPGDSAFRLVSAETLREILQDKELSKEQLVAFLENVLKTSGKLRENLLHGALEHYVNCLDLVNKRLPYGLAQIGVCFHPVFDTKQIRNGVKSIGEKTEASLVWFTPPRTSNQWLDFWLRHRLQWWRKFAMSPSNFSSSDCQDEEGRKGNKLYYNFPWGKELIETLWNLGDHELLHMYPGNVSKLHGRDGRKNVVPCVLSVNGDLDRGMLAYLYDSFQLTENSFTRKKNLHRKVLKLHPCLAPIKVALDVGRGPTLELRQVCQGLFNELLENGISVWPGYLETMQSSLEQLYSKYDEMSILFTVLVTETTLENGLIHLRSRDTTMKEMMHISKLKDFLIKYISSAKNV
# Assay: DNA polymerization assay, wild type POLγ
# Format: biochemical
# Conditions: 0.1 μM dNTP, read-out: WT AC50 (μM) at 0.1 μM
# Protocol: DNA Polymerization Assay to Monitor Effects on Human Wildtype POLγ and Four Disease-Causing Mutant Variants of Human POLγ.
# The ability of small molecules to stimulate the polymerase activity of POLγ was analyzed in a quantitative fluorescence SYBR Green I assay with fluorescence intensity (FI) readout.
# In the presence of dNTPs, wild type human POLγ and mutant derivatives thereof were incubated with single-stranded, circular M13mp18 ssDNA hybridized to a short DNA oligonucleotide that functions as a primer for initiation of DNA synthesis. POLγ and mutant derivatives thereof will extend the primer and use the M13mp18 molecule as a template to synthesize long stretches of double-stranded DNA. SYBR Green I, which is a double-stranded DNA-binding dye, was used to quantify formation of double-stranded DNA in the reaction. When bound to double-stranded DNA, SYBR Green I fluorescence increases by up to 100-fold.
# The assay was performed in the 384-well plate format. Upon addition of compounds, changes in double-stranded DNA synthesis activity can be monitored by following effects on fluorescent intensity.
# The reactions also contained the accessory POLγB subunit, and the human mitochondrial single-stranded DNA binding protein (mtSSB).
# The DNA template mixture used in the assay contained 0.5 nM primed M13 mp18 ssDNA, 400 nM mtSSB, 0.1 mM Tris-HCl (pH 8.0), 0.1 mM dNTP, 10 mM MgCl2, 0.1 mg/mL BSA, 1 mM TCEP solution, and 0.02% Triton X-100. The DNA template mixture for the wild type protein contained either 100 μM dNTP, 1 μM dNTP, or 0.1 μM dNTP, designated in Table 2 as 100 μM, 1 μM, and 0.1 μM, respectfully.
# Microplates with compounds (0.1 μL in each well) to be tested in the assay were prepared from 10 mM compound stocks in 100% DMSO, and equal amounts of DMSO without any compound were added to positive and negative control wells.
# The protein mixture was dispensed (5 μL into each well) into compound plates and incubated at 37° C. for 15 minutes. After incubation, 5 μL of the DNA template mixture was dispensed into each well. The plates were then incubated at 37° C. for 2 hours.
# During incubation, a combined stop buffer and detection reagent solution was prepared. The buffer contained 25 mM EDTA (pH 8.0), 0.02% Triton X-100, and SYBR Green I [Invitrogen] diluted 10,000× (for fluorescent readout). EDTA will stop the enzymatic reaction by chelating magnesium ions.
row,AC50 [µM],SMILES
1,5,"Cc1cnc(-c2ccc(Cl)c(NS(=O)(=O)c3cc(C)c(Cl)cc3C)c2)s1 [Example 102, 4-chloro-N-(2-chloro-5-(5-methylthiazol-2-yl)phenyl)-2,5-dimethylbenzenesulfonamide]"
2,17,"Cc1cnc(-c2cc(NS(=O)(=O)c3cc(C)c(Cl)cc3C)ccc2C)s1 [Example 103, 4-chloro-2,5-dimethyl-N-(4-methyl-3-(5-methylthiazol-2-yl)phenyl)benzenesulfonamide]"

# Same assay, conditions: 100 μM dNTP, read-out: WT AC50 (μM) at 100 μM
row,SMILES,AC50 [µM]
1,"Cc1cc(S(=O)(=O)Nc2cccc(C(=O)N(C)C(C)CO)c2)c(C)cc1Cl (single isomer, unassigned) [Example 14, 3-((4-chloro-2,5-dimethylphenyl)sulfonamido)-N-(1-hydroxypropan-2-yl)-N-methylbenzamide]",> 100
2,"Cc1ccc(C)c(S(=O)(=O)Nc2cccc(C(=O)N3CCCCC3)c2)c1 [Example 3, 2,5-dimethyl-N-(3-(piperidine-1-carbonyl)phenyl)benzene sulfonamide]",> 100
3,"Cc1ccc(C)c(S(=O)(=O)Nc2cccc(C(=O)N3CCCC[C@H]3C)c2)c1 [Example 5, (R)-2,5-dimethyl-N-(3-(2-methylpiperidine-1-carbonyl)phenyl)benzenesulfonamide]",5
4,"Cc1ccc(C)c(S(=O)(=O)Nc2cccc(C(=O)N3CCCC[C@@H]3C)c2)c1 [Example 6, (S)-2,5-dimethyl-N-(3-(2-methylpiperidine-1-carbonyl)phenyl)benzenesulfonamide]",4
5,"Cc1cc(S(=O)(=O)Nc2cccc(C(=O)N3CCCC[C@H]3C)c2)c(C)cc1Cl [Example 9, (R)-4-chloro-2,5-dimethyl-N-(3-(2-methylpiperidine-1-carbonyl)phenyl)benzenesulfonamide]",2
6,"Cc1cc(S(=O)(=O)Nc2cccc(C(=O)NCc3ccccc3)c2)c(C)cc1Cl [Example 11, N-benzyl-3-((4-chloro-2,5-dimethylphenyl)sulfonamido)benzamide]",29
7,"Cc1cc(S(=O)(=O)Nc2cccc(C(=O)N(C)C)c2)c(C)cc1Cl [Example 12, 3-((4-chloro-2,5-dimethylphenyl)sulfonamido)-N,N-dimethylbenzamide]",5
8,"Cc1cc(S(=O)(=O)Nc2cccc(-c3ncco3)c2)c(C)cc1Cl [Example 17, 4-chloro-2,5-dimethyl-N-(3-(oxazol-2-yl)phenyl)benzenesulfonamide]",0.6
9,"Cc1cc(S(=O)(=O)Nc2cccc(-c3nccn3C)c2)c(C)cc1Cl [Example 19, 4-chloro-2,5-dimethyl-N-(3-(1-methyl-1H-imidazol-2-yl)phenyl)benzenesulfonamide]",0.8
10,"Cc1cc(S(=O)(=O)Nc2cccc(-c3ncc(C(N)=O)s3)c2)c(C)cc1Cl [Example 92, 2-(3-((4-chloro-2,5-dimethylphenyl)sulfonamido)phenyl) thiazole-5-carboxamide]",> 10
11,"Cc1cnc(-c2ccc(Cl)c(NS(=O)(=O)c3cc(C)c(Cl)cc3C)c2)s1 [Example 102, 4-chloro-N-(2-chloro-5-(5-methylthiazol-2-yl)phenyl)-2,5-dimethylbenzenesulfonamide]",> 10
12,"Cc1cnc(-c2cc(NS(=O)(=O)c3cc(C)c(Cl)cc3C)ccc2C)s1 [Example 103, 4-chloro-2,5-dimethyl-N-(4-methyl-3-(5-methylthiazol-2-yl)phenyl)benzenesulfonamide]",1
13,"Cc1cc(S(=O)(=O)N[C@@H]2CCCN(C(=O)[C@@H]3CCCN3C)C2)c(C)cc1Cl [Example 104, 4-chloro-2,5-dimethyl-N-((R)-1-(methyl-L-prolyl)piperidin-3-yl)benzenesulfonamide]",> 10

# More lines, now with the values ahead:
row,AC50 [µM],SMILES
1,1,"Cc1ccc(C)c(S(=O)(=O)Nc2cccc(C(=O)N3CCCCC3C#N)c2)c1 (centres unmarked) [Example 2, N-(3-(2-cyanopiperidine-1-carbonyl)phenyl)-2,5-dimethylbenzenesulfonamide]"
2,1,"Cc1ccc(C)c(S(=O)(=O)Nc2cccc(C(=O)N3CCOCC3C#N)c2)c1 (centres unmarked) [Example 7, N-(3-(3-cyanomorpholine-4-carbonyl)phenyl)-2,5-dimethylbenzenesulfonamide]"
3,5,"Cc1ccc(C)c(S(=O)(=O)Nc2cccc(C(=O)N[C@@H](C)C3CC3)c2)c1 [Example 8, (S)-N-(1-cyclopropylethyl)-3-((2,5-dimethylphenyl)sulfonamido)benzamide]"
4,0.5,"Cc1cc(S(=O)(=O)Nc2cccc(C(=O)N3CCC[C@H]3C)c2)c(C)cc1Cl [Example 10, (R)-4-chloro-2,5-dimethyl-N-(3-(2-methylpyrrolidine-1-carbonyl)phenyl)benzenesulfonamide]"
5,1,"Cc1cc(S(=O)(=O)Nc2cc(F)cc(C(=O)N3CCC[C@H]3C)c2)c(C)cc1Cl [Example 13, (R)-4-chloro-N-(3-fluoro-5-(2-methylpyrrolidine-1-carbonyl)phenyl)-2,5-dimethylbenzenesulfonamide]"
6,0.2,"Cc1cc(S(=O)(=O)Nc2cccc(-c3nccs3)c2)c(C)cc1Cl [Example 16, 4-chloro-2,5-dimethyl-N-(3-(thiazol-2-yl)phenyl)benzenesulfonamide]"
7,1,"Cc1cc(S(=O)(=O)Nc2cccc(-c3ccn(C)n3)c2)c(C)cc1Cl [Example 18, 4-chloro-2,5-dimethyl-N-(3-(1-methyl-1H-pyrazol-3-yl)phenyl)benzenesulfonamide]"
8,3,"CNC(=O)c1cnc(-c2cccc(NS(=O)(=O)c3cc(C)c(Cl)cc3C)c2)s1 [Example 93, 2-(3-((4-chloro-2,5-dimethylphenyl)sulfonamido)phenyl)-N-methylthiazole-5-carboxamide]"
9,> 10,"Cc1cc(S(=O)(=O)Nc2cccc(-c3ncc(C#N)s3)c2)c(C)cc1Cl [Example 96, 4-chloro-N-(3-(5-cyanothiazol-2-yl)phenyl)-2,5-dimethylbenzenesulfonamide]"
10,> 10,"Cc1cnc(-c2ccc(C)c(NS(=O)(=O)c3cc(C)c(Cl)cc3C)c2)s1 [Example 98, 4-chloro-2,5-dimethyl-N-(2-methyl-5-(5-methylthiazol-2-yl)phenyl)benzenesulfonamide]"
11,> 10,"Cc1cc(S(=O)(=O)Nc2cccc(C(=O)N3CCCC4(CC4)C3)c2)c(C)cc1Cl [Example 105, N-(3-(5-azaspiro[2.5]octane-5-carbonyl)phenyl)-4-chloro-2,5-dimethylbenzenesulfonamide]"
